Assay results published in PubChem BioAssay (NCI).
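Step 1: Grow cells in 96-well plates. Step 2: Expose to compound for 48 hours at 5 concentrations. Step 3: Interpolate endpoints linearly; if unreached, use highest concentration. GI50 = concentration required for 50% inhibition of growth. The concentration for full growth arrest is given as TGI.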

Assays:
Test in all cases: NCI tumour cell line growth inhibition, 48 h
UACC-62 melanoma = tested on: UACC-62 melanoma
IGROV1 ovarian = tested on: IGROV1 ovarian
SF-539 CNS = tested on: SF-539 CNS
A549 NSCLC = tested on: A549 NSCLC
MDA-MB-231 breast = tested on: MDA-MB-231 breast
UO-31 renal = tested on: UO-31 renal
UACC-257 melanoma = tested on: UACC-257 melanoma
HCC-2998 colon = tested on: HCC-2998 colon
BT-549 breast = tested on: BT-549 breast
K-562 leukemia = tested on: K-562 leukemia
HT29 colon = tested on: HT29 colon
OVCAR-8 ovarian = tested on: OVCAR-8 ovarian
CCRF-CEM leukemia = tested on: CCRF-CEM leukemia
NCI-H460 lung = tested on: NCI-H460 lung
M14 melanoma = tested on: M14 melanoma
NCI-H522 lung = tested on: NCI-H522 lung
DU-145 prostate = tested on: DU-145 prostate
HCT-15 colon = tested on: HCT-15 colon
NCI/ADR-RES ovarian = tested on: NCI/ADR-RES ovarian
786-0 renal = tested on: 786-0 renal
U251 CNS = tested on: U251 CNS
SF-268 CNS = tested on: SF-268 CNS
SK-MEL-2 melanoma = tested on: SK-MEL-2 melanoma
A498 renal = tested on: A498 renal
TK-10 renal = tested on: TK-10 renal
SK-MEL-5 melanoma = tested on: SK-MEL-5 melanoma
RPMI-8226 leukemia = tested on: RPMI-8226 leukemia

Compound: CS(=O)(=O)c1nccc(-c2c(-c3cccc(OCc4ccc(Cl)c(C(F)(F)F)c4)c3)nc3sccn23)n1
- GI50 (UACC-62 melanoma): 8.49 µM
- TGI (UACC-62 melanoma): 16.9 µM
- GI50 (IGROV1 ovarian): 1.64 µM
- TGI (IGROV1 ovarian): 5.95 µM
- GI50 (SF-539 CNS): 7.64 µM
- TGI (SF-539 CNS): 15 µM
- GI50 (A549 NSCLC): 18.1 µM
- TGI (A549 NSCLC): > 50 µM
- GI50 (MDA-MB-231 breast): 1.07 µM
- TGI (MDA-MB-231 breast): 2.38 µM
- GI50 (UO-31 renal): 7.16 µM
- TGI (UO-31 renal): 13.7 µM
- GI50 (UACC-257 melanoma): 4.04 µM
- TGI (UACC-257 melanoma): 10.8 µM
- GI50 (HCC-2998 colon): 0.91 µM
- TGI (HCC-2998 colon): 1.68 µM
- GI50 (BT-549 breast): 1.52 µM
- TGI (BT-549 breast): 5.51 µM
- GI50 (K-562 leukemia): 2.1 µM
- TGI (K-562 leukemia): > 50 µM
- GI50 (HT29 colon): 7.99 µM
- TGI (HT29 colon): 16.3 µM
- GI50 (OVCAR-8 ovarian): 7.09 µM
- TGI (OVCAR-8 ovarian): 13.8 µM
- GI50 (CCRF-CEM leukemia): 1.67 µM
- TGI (CCRF-CEM leukemia): > 50 µM
- GI50 (NCI-H460 lung): 2 µM
- TGI (NCI-H460 lung): 7.28 µM
- GI50 (M14 melanoma): 6.93 µM
- TGI (M14 melanoma): 14.1 µM
- GI50 (NCI-H522 lung): 1.65 µM
- TGI (NCI-H522 lung): 8.06 µM
- GI50 (DU-145 prostate): 5.01 µM
- TGI (DU-145 prostate): 10.8 µM
- GI50 (HCT-15 colon): 1.02 µM
- TGI (HCT-15 colon): 2.42 µM
- GI50 (NCI/ADR-RES ovarian): 9 µM
- TGI (NCI/ADR-RES ovarian): 19.1 µM
- GI50 (786-0 renal): 8.45 µM
- TGI (786-0 renal): 15.3 µM
- GI50 (U251 CNS): 7.53 µM
- TGI (U251 CNS): 14.4 µM
- GI50 (SF-268 CNS): 8.49 µM
- TGI (SF-268 CNS): 17.6 µM
- GI50 (SK-MEL-2 melanoma): 3.31 µM
- TGI (SK-MEL-2 melanoma): 9.61 µM
- GI50 (A498 renal): 7.15 µM
- TGI (A498 renal): 13.8 µM
- GI50 (TK-10 renal): 7.99 µM
- TGI (TK-10 renal): 14.9 µM
- GI50 (SK-MEL-5 melanoma): 7.98 µM
- TGI (SK-MEL-5 melanoma): 14.9 µM
- GI50 (RPMI-8226 leukemia): 1.33 µM
- TGI (RPMI-8226 leukemia): 3.64 µM
